We go through two molecules from patent publication US10934277B2, “Enantiomerically purified GPER agonist for use in treating disease states and conditions” (Linnaeus Therapeutics, Inc., priority 2018, dated 2021).

One series concerns YUMM1.7 melanoma cells. The experiment in a line: YUMM1.7 proliferation assay (4 day growth). The class given is cell-based. Particulars: 500 nM; for doubling compared with that seen with the vehicle / Doublings: 4 days; for Doublings / cell count after 4 days of growth (single replicates) / average cell count after 4 days of growth: starting cell number 15,000; for cell count after 4 days of growth (single replicates): 5 replicates; for average cell count after 4 days of growth: average of 5 replicates. The method, then: YUMM1.7 cells were cultured for at least 1 passage after thawing and were cultured in DMEM with 5% FBS (Invitrogen) and 1% antibiotic-antimycotic (gibco) at 37C 5% CO2. Proliferation assays were performed by plating 15,000 cells in 12-well plates with 5 replicates per condition tested. Media and drugs were refreshed on Day 2. On Day 4, cells were trypsinized using 0.25 ml 0.05% Trypsin with EDTA (Invitrogen) for 5 minutes to detach from the plate, mixed with 0.75 ml of culture media, and counted using a hemocytometer.
Starting cell numbers were 15,000.

For a further series, the target named is T1, OATP1B1 (Homo sapiens, UniProt Q9Y6L6).
T1 sequence (Q9Y6L6 1-691): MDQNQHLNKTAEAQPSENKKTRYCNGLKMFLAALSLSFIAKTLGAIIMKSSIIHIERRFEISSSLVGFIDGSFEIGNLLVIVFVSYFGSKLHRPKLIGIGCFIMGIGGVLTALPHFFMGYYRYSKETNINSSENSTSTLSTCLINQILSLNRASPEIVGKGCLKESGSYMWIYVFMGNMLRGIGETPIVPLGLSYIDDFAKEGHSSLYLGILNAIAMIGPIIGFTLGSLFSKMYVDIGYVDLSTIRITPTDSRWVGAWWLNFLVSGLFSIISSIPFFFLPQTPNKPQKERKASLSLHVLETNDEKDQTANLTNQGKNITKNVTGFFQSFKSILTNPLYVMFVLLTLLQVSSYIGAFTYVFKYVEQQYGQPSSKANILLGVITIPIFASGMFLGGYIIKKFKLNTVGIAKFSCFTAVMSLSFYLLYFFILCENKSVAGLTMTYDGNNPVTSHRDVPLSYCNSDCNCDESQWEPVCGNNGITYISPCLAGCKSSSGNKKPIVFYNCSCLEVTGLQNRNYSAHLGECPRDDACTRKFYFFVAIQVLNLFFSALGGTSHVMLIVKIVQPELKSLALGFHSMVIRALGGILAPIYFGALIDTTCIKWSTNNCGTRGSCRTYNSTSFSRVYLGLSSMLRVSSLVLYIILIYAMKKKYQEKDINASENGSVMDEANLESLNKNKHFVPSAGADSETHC
The experiment in a line: Drug transporter fluorometric inhibition, OATP1B1. Type of series: in vitro ADME. The method, then: Drug transporter (fluorometric inhibition)
The percent of control was calculated using the following equation. The percent of inhibition was calculated by subtracting the percent of control from 100. The IC50 value (concentration causing a half-maximal inhibition of the control value) was determined by non-linear regression analysis of the concentration-response curve using the Hill equation.
Compound is the individual reading in the presence of the test compound. T1 is the mean reading in the absence of the test compound. Background (for P-gp and BCRP) is the mean reading in the presence of the highest effective concentration of the reference inhibitor. Background (for OATP1B1, OATP1B3, OAT1, OAT3, and OCT2) is the mean reading in the absence of both the test compound and the substrate.

A further series has as its system CYP1A2. The experiment in a line: Cytochrome P450 induction in hepatocytes, CYP1A2. Type of series: in vitro ADME. Particulars: hepatocytes from three different human cell lines; 1 μM, 10 μM and 100 μM.
For another series, the system named is CYP3A4. The series is described as follows: Cytochrome P450 induction in hepatocytes, CYP3A4. Particulars: hepatocytes from three different human cell lines; 1 μM, 10 μM and 100 μM. The class given is in vitro ADME.
The next series addresses T2, ADRA2A (Homo sapiens, UniProt P08913).
T2 sequence (P08913 1-465): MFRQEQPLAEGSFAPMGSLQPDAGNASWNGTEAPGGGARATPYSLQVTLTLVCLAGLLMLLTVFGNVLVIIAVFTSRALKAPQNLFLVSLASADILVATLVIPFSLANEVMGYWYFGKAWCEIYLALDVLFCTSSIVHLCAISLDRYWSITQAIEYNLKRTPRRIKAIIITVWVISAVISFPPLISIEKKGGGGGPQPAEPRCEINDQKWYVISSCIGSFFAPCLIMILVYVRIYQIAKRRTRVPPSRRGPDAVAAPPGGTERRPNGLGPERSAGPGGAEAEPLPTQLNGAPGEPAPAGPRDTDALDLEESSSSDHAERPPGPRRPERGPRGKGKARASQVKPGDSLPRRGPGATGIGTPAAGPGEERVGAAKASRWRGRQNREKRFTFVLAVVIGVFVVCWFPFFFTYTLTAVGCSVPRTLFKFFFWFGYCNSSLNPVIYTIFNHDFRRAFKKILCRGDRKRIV
The series is described as follows: Off target selectivity assay, ADRA2A. Type of series: cell-based. Particulars: dose response, concentrations up to 10 μM; read-out: IC50 or EC50 on ADRA2A. As to the method: Final assay vehicle concentration was 1%.
For Gi coupled GPCRs, EC80 forskolin was included.
DMSO concentration for all readouts is ≤0.2%.
Probenicid was prepared fresh. Cells were loaded with dye prior to testing.

Another series addresses T3, AR (Homo sapiens, UniProt P10275).
T3 sequence (P10275 1-920): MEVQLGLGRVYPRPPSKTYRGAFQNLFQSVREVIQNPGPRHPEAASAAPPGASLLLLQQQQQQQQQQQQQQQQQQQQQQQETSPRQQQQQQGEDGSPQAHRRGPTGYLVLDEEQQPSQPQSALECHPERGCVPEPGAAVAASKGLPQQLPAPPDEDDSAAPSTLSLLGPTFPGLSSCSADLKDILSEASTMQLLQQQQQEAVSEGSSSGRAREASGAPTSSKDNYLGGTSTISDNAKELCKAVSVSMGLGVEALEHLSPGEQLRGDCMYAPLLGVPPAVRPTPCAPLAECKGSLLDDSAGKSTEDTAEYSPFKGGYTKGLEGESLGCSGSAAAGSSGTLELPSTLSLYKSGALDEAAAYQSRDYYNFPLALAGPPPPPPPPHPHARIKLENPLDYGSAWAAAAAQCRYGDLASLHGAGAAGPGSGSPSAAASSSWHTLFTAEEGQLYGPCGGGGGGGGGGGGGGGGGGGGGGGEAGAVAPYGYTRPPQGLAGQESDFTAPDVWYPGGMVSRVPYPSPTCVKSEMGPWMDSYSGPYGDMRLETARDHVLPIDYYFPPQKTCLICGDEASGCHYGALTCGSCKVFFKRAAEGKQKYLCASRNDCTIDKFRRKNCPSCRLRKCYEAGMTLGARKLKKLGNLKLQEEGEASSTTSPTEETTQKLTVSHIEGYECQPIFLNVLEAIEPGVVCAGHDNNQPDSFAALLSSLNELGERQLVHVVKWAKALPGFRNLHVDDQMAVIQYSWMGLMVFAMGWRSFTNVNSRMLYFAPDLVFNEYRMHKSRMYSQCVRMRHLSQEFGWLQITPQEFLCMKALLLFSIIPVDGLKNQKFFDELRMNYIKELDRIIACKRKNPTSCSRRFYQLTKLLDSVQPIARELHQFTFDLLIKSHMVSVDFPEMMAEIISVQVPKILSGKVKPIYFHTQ
The experiment in a line: Off target selectivity assay, Nuclear Hormone Receptor AR.

pIC50: −log10 of the molar value. Values joined by “and” are separate entries in the source; they are usually repeats but may differ in a detail not shown here. Identical values can stand only once.

Regarding `CC(=O)c1ccc2c(c1)[C@@H]1C=CC[C@@H]1[C@H](c1cc3c(cc1Br)OCO3)N2` (single isomer, unassigned) [SRR G-1], in the series on YUMM1.7 melanoma cells, the “doubling compared with that seen with the vehicle” value was “less than 1/10”; the Doublings amounted to 0.6; the “cell count after 4 days of growth (single replicates)” value was 2 tens of thousands (3×) and 3 tens of thousands (2×); the “average cell count after 4 days of growth” value is 2.4 tens of thousands. The same molecule registered an inhibition at 10 µM against OATP1B1 of 82.5%. Besides, in the series on CYP1A2, the CYP1A2 induction result was “induced at both 1 μM and 10 μM in only 1 of the 3 cell lines”. Besides, the CYP3A4 induction result in the series with CYP3A4 is recorded as “induced at only 10 μM in 2 of the 3 cell lines”.

For the molecule `CC(=O)c1ccc2c(c1)[C@H]1C=CC[C@H]1[C@@H](c1cc3c(cc1Br)OCO3)N2` [RSS G-1, 1-((3aR,4S,9bS)-4-(6-bromobenzo[d][1,3]dioxol-5-yl)-3a,4,5,9b-tetrahydro-3H-cyclopenta[c]quinolin-8-yl)ethan-1-one], in the series on YUMM1.7 melanoma cells, the “doubling compared with that seen with the vehicle” value was “approximately the same number of doublings as the vehicle”; the Doublings is listed as 7.9; the “cell count after 4 days of growth (single replicates)” value is 83 tens of thousands and 94 tens of thousands and 79 tens of thousands and 111 tens of thousands and 107 tens of thousands; the “average cell count after 4 days of growth” value is listed as 94.8 tens of thousands. Also, on OATP1B1, the inhibition at 10 µM is 91.2%. In addition, the CYP1A2 induction entry in the series on CYP1A2 was “induced at both 10 μM and 100 μM in 2 of the 3 cell lines”. Besides, the negative logarithm of the IC50 (pIC50) on ADRA2A is 5.68. The pIC50 against AR was 5.32.

Usually inhibition stands for the drop in the measured response relative to a control, in per cent. The low end stands for a response near the control, the high end for a response far below the control. By pIC50 is commonly meant the negative decadic logarithm of the IC50, by convention in mol/L.
